# Experimental data from paper PMC8451604, “Rational formulation engineering of fraxinellone utilizing 6-O-α-D-maltosyl-β-cyclodextrin for enhanced oral bioavailability and hepatic fibrosis therapy” (Drug Delivery, 2021).
# Legend:
# [1] = Octanol/water partition coefficient (Log P) measurement; format: physicochemical; settings: octanol/PBS (mutually saturated, equal volumes); pH 1.2, 4.5 and 6.8, 37 °C
# Experimental: The mixtures were placed in an air bath shaking at 100 rpm at 37 °C for 24 h. The samples were then centrifuged (12,000 rpm, 10 min) for oil/water phase separation. The drug concentration in these two phases was analyzed by HPLC, respectively.
# Caco-2 cells = test: Cytotoxicity in Caco-2 cells (MTT assay); format: cell-based; settings: Caco-2, concentration increased to 200 μg/mL
# Experimental: Cytotoxicity effects and cellular uptake ability of Frax, CDs, and CDs-Frax complexes were examined using Caco-2 cells. […] Each CD solution was also used to determine whether the cell toxicity was caused by Frax or CDs. For cellular uptake studies, Caco-2 cells were treated with Frax and CDs-Frax (100 μg/mL) for 0.5, 1, and 2 h, respectively. For P-gp inhibition evaluation, the cells were pretreated with verapamil at a concentration of 100 μg/mL and further treated with each drug or formulation. Thereafter, the cells were washed and replenished with fresh PBS (300 μL). The cell lysate was prepared by three cycles of freeze-thaw. Protein concentration in the samples was quantified by the BCA kit while the Frax concentration was determined by HPLC.
# [2] = Stability of Frax in homogenates of gastrointestinal segments; format: in vitro ADME, rats; settings: rat GI segment homogenates, 37 °C
# Experimental: GI segments (the stomach, duodenum, jejunum, ileum, and colon) were immediately isolated after the rats were sacrificed. Thereafter, the mucosa of each segment was homogenized and centrifuged following gently scraping. The supernatant was separated and subjected to BCA protein quantitative kit to adjust the final protein concentration to 1 mg/mL. DMSO solution of Frax (5 mg/mL) was added in the homogenate to achieve a final drug concentration of 20 μg/mL. After incubation at 37 °C for predetermined durations, samples were immediately precipitated by methanol, centrifuged, and injected into HPLC to measure the Frax concentration. The drug concentration measured before the incubation was set to 100%.
# [3] = Blood biochemical assay (hematological parameters); format: in vivo, Kunming male mice; settings: mice, 7 weeks; for PLT (platelet) / WBC (white blood cell): in 10^9/L (unit assumed); for RBC (red blood cell): in 10^12/L (unit assumed); for HCT (haematocrit) / RDW-CV (red cell volume distribution width): in % (unit assumed); for MCV (mean cell volume) / MPV (meanplateletvolume) / RDW-SD: in fL (unit assumed); for HGB (hemoglobin): in g/L (unit assumed); for MCH (mean corpuscular hemoglobin): in pg (unit assumed)
# Experimental: The Kunming male mice (weight of 28–30 g) were divided into 10 groups (n = 10): normal group, Frax or G2-β-CD-Frax treatment groups with a Frax dose of 5, 10, and 20 mg/kg, respectively, G2-β-CD solution treatment (equivalent to 20 mg/kg of G2-β-CD-Frax) group. Drug treatment continued every day for 7 weeks. One day after the last administration, blood and major tissues (heart, liver, spleen, lung, and kidney) were obtained from the blank group and drug-treated groups (20 mg/kg) for histological examination. The whole blood was directly analyzed using an automatic blood cell analyzer to obtain hematological parameters. The collected tissues were subjected to histological examination.
# [4] = Oral bioavailability / pharmacokinetic study; set-up: species or system Male Wistar rats; settings: male, Wistar, rat, in vivo
# Experimental: Pharmacokinetic studies were conducted in Male Wistar rats (180–220 g) supplied by the Center of laboratory animals, Zhengzhou University. The Use Committee of Zhengzhou University (IRB0000861) approved the experimental protocol. In addition, all animal experiments were conducted according to the Guidelines of Animal Experimentation of the Laboratory Animal Center. Rats were acclimatized before experiments and provided free access to food and water.
# Rats divided into five groups at random (n = 5) were dosed with the following formulations: intravenous administration of Frax ([…]) or orally given Frax suspension (150 mg/kg) or SBE-β-CD-Frax, HP-β-CD-Frax, and G2-β-CD-Frax (150 mg/kg), respectively. Blood (0.4 mL) was obtained by orbital sinus collection at 0.17, 0.25, 0.75, 1, 1.5, 2, 4, 6, 8, and 10 h post-administration. To determine Frax concentration in plasma, 200 μL methanol, 100 μL acetonitrile, and 20 μL 5% hydrochloric acid were added to rat plasma (100 μL) gradually. Following vortexing and centrifugation (4024.8 g, 10 min), the supernatant was collected, dried by air blowing at room temperature, and reconstituted with 150 μL of the mobile phase. The samples were sonicated and vortexed until homogeneity. After centrifugation, the supernatant (50 μL) was aspirated and injected into HPLC. The standard curve encompassed a linear range of 0.05–10 μg/mL and was used to calculate Frax concentration in plasma. Pharmacokinetic parameters were calculated using DAS software version 3.0 and reported as mean ± standard deviation. The oral absolute and relative bioavailability (Fa and Fr) were calculated using the following Equations (3) and (4): (3) Fa(%)=AUC^testDose^i.v/AUC^i.vDose^test (4) Fr(%)=AUCtest/AUCreference where AUC is the area under the pharmacokinetic curves
smiles,measurement,setting,value
"CC1=C2C(=O)O[C@@H](c3ccoc3)[C@]2(C)CCC1 [Frax, Fraxinellone]",logP at 24 h,[1],3.2 ± 0.17
same,cytotoxicity (in words),Caco-2 cells,marked cell death
same,degradation in GI homogenates,[2],negligible degradation
same,MCHC (mean corpuscular hemoglobin concentration),[3]; 5 mg/kg,342.63 ± 10.38
same,PDW (platelet distribution width),[3]; 5 mg/kg,14.84 ± 0.12
same,PLT (platelet),[3]; 5 mg/kg,1188.13 ± 317.24
same,WBC (white blood cell),[3]; 5 mg/kg,7.78 ± 3.91
same,RBC (red blood cell),[3]; 5 mg/kg,9.21 ± 0.75
same,HCT (haematocrit),[3]; 5 mg/kg,39.54 ± 2.28
same,RDW-CV (red cell volume distribution width),[3]; 5 mg/kg,16.24 ± 1.32
same,MCV (mean cell volume),[3]; 5 mg/kg,43.01 ± 2.17
same,MPV (meanplateletvolume),[3]; 5 mg/kg,6.51 ± 0.32
same,RDW-SD,[3]; 5 mg/kg,29.88 ± 3.52
same,HGB (hemoglobin),[3]; 5 mg/kg,135.50 ± 10.76
same,MCH (mean corpuscular hemoglobin),[3]; 5 mg/kg,14.73 ± 0.49
same,MCHC (mean corpuscular hemoglobin concentration),[3]; 10 mg/kg,344.43 ± 9.64
same,PDW (platelet distribution width),[3]; 10 mg/kg,14.91 ± 0.12
same,PLT (platelet),[3]; 10 mg/kg,1012.71 ± 281.88
same,WBC (white blood cell),[3]; 10 mg/kg,6.46 ± 2.46
same,RBC (red blood cell),[3]; 10 mg/kg,8.42 ± 0.32
same,HCT (haematocrit),[3]; 10 mg/kg,37.15 ± 1.70
same,RDW-CV (red cell volume distribution width),[3]; 10 mg/kg,16.22 ± 0.59
same,MCV (mean cell volume),[3]; 10 mg/kg,43.80 ± 1.44
same,MPV (meanplateletvolume),[3]; 10 mg/kg,6.63 ± 0.44
same,RDW-SD,[3]; 10 mg/kg,30.71 ± 1.70
same,HGB (hemoglobin),[3]; 10 mg/kg,127.00 ± 5.10
same,MCH (mean corpuscular hemoglobin),[3]; 10 mg/kg,15.09 ± 0.46
same,MCHC (mean corpuscular hemoglobin concentration),[3]; 20 mg/kg,338.75 ± 3.58
same,PDW (platelet distribution width),[3]; 20 mg/kg,14.86 ± 0.17
same,PLT (platelet),[3]; 20 mg/kg,1190.00 ± 157.80
same,WBC (white blood cell),[3]; 20 mg/kg,8.32 ± 3.90
same,RBC (red blood cell),[3]; 20 mg/kg,9.07 ± 0.33
same,HCT (haematocrit),[3]; 20 mg/kg,38.83 ± 1.69
same,RDW-CV (red cell volume distribution width),[3]; 20 mg/kg,16.54 ± 0.79
same,MCV (mean cell volume),[3]; 20 mg/kg,42.83 ± 1.54
same,MPV (meanplateletvolume),[3]; 20 mg/kg,6.38 ± 0.23
same,RDW-SD,[3]; 20 mg/kg,30.13 ± 2.23
same,HGB (hemoglobin),[3]; 20 mg/kg,131.50 ± 5.66
same,MCH (mean corpuscular hemoglobin),[3]; 20 mg/kg,14.51 ± 0.46
same,bioavailability,[4],0.5%
same,AUC(0-inf),"[4]; iv, 10 mg/kg",11800 ± 1430 ng·h/mL
same,AUC(0-inf),"[4]; po, 150 mg/kg",970 ± 230 ng·h/mL
same,Cmax,"[4]; po, 150 mg/kg",490 ± 290 ng/mL
same,Tmax,"[4]; po, 150 mg/kg",1 ± 0.35 h
